# Values joined by “and” are separate entries in the source; they are usually repeats but may differ in a detail not shown here. Equal entries are not always repeated.
# Experiments:
# E. coli K12 biofilm = assay: Effect of GM-CSF on 24-h E. coli K12 biofilm, alone and with antibiotic; type: cell-based, Escherichia coli
# Experimental: This Example describes the treatment of biofilms made from P. aeruginosa PAO1, PDO300 and Escherichia coli K12, with GM-CSF introduced directly or together with an antibiotic to test the synergy.
# In brief, after preparing an overnight culture, it was subcultured to an initial OD600 of 0.01 to a total volume of 20 mL M63 medium (for PAO1 and PDO300) or 20 ml LB medium (for E. coli K12) in a petri dish with 316L stainless steel coupons (1.75 cm×1 cm). The biofilm was grown for 24 h at 37° C. without shaking. After incubation, the coupons were washed by gently dipping in 0.85% NaCl twice using tweezers and were placed in new empty petri dishes.
# To test the synergistic effects between GM-CSF (2.43 pg/mL or 0.17 pM) and antibiotics, a total of 8 coupons were analyzed. These 8 coupons were placed in 4 petri dishes (2 coupons in each dish). The two dishes were labeled as control and the other two as treatment samples. In the treatment samples, GM-CSF was added to 20 mL of 0.85% NaCl to a concentration of 2.43 pg/mL (or 0.17 pM). The control samples were supplemented with the same amount of PBS and BSA as present in the samples with 2.43 pg/ml (or 0.17 pM) GM-CSF. The coupons were incubated at 37° C. for 2 h.
# After incubation, a control dish and a treatment dish was selected for studying the killing effect of 2.43 pg/ml GM-CSF on biofilm cells. Each coupon after gentle washing with 0.85% NaCl buffer, was placed in a test tube with 3 mL 0.85% NaCl buffer in each. They were sonicated (B200, Sinosonic Industrial Co., Ltd., Taiwan) for 4 mins to release the biofilm cells in the buffer. After vortexing for 1 min, they were plated on LB agar plates using drop plate method. The CFU was counted after incubation at 37° C. for 24 h to count the total number of viable cells. Furthermore, the synergistic effect of antibiotics with GM-CSF was evaluated with additional 3.5 h treatment with antibiotic at 37° C. After incubation, drop plate method was performed and the CFU was counted to understand if there is a synergistic effect.
# P. aeruginosa PAO1 [1] = assay: Effect of GM-CSF on planktonic PAO1 total population and persister cells at stationary phase, co-treatment with antibiotic; type: cell-based, Pseudomonas aeruginosa
# P. aeruginosa PAO1 [2] = assay: Effect of GM-CSF on planktonic PAO1 cells (total viable cells and persisters) at exponential phase, alone and with antibiotic, CFU by drop plate; type: cell-based, Pseudomonas aeruginosa; conditions: for % change in avg. CFU/ml after adding factor + CIP / % change in avg. CFU/ml after adding factor + GEN / % change in avg. CFU/ml after adding factor + TET / % change in avg. CFU/ml after adding factor + TOB / average CFU/mL of persisters reduced by / average CFU/mL of total viable cells reduced by: planktonic PAO1; for % change in avg. CFU/ml after adding factor + CIP: 2.43 pg/mL GM-CSF with 200 μg/mL ciprofloxacin; for % change in avg. CFU/ml after adding factor + GEN: 2.43 pg/mL GM-CSF with 200 μg/mL gentamicin; for % change in avg. CFU/ml after adding factor + TET: 2.43 pg/mL GM-CSF with 200 μg/mL tetracycline; for % change in avg. CFU/ml after adding factor + TOB: 2.43 pg/mL GM-CSF with 200 μg/mL tobramycin; for average CFU/mL of persisters reduced by / average CFU/mL of total viable cells reduced by: reduction
# Experimental: This Example describes the treatment of planktonic P. aeruginosa PAO1, PDO300 and Escherichia coli K12, with GM-CSF introduced directly or together with an antibiotic to test the synergy. All experiments were conducted with cells harvested from exponential phase subcultures with an optical density at 600 nm (OD600) of 0.3 to 0.4.
# In brief, after preparing an overnight culture of the tested strain in 25 ml LB medium, a subculture was prepared with an OD600 of 0.01 in 50 mL LB medium. The subculture was incubated at 37° C. with shaking at 200 rpm for 3-4 h, till an OD600 of 0.3 to 0.4 was reached. The exponential phase subculture was then divided equally into two centrifuge tubes, each containing 25 mL of the subculture. The subcultures were washed twice with 0.85% NaCl buffer by vortexing and then centrifuging at 4° C., 8000 rpm for 10 min each time. The washed subcultures/cells were resuspended in 25 mL 0.85% NaCl buffer and vortexed gently for 1 min. One of the tubes of subculture was selected for isolation of persisters by adding 200 μg/mL ciprofloxacin (for PAO1 and PDO300 strains) or 100 μg/mL ampicillin (for E. coli K12 strain). After adding the antibiotic for persister isolation, the subculture was incubated at 37° C., shaking at 200 rpm for 3.5 h.
# To test the effects of GM-CSF on viability of persisters, the second tube was used to quantify the total number of viable cells and 1 mL of the washed persister cells was divided into 6 microcentrifuge tubes; 3 were control and the other 3 were GM-CSF treatment samples. In the treatment samples, GM-CSF was added to a concentration of 2.43 pg/mL (or 0.17 pM), the same as found in healthy human bodies. The control samples were supplemented with the same concentration of PBS and BSA as present in 2.43 pg/mL (or 0.17 pM) GM-CSF samples.
# After incubating at 37° C. for 1 h with shaking at 200 rpm, the samples were plated on LB agar plates (15 g/L bacto agar) using drop plate method. The agar plates were then incubated for 24 h at 37° C. to count the total number of persister cells and understand the effect of 0.17 pM GM-CSF on the viability of persister cells.
# To test the synergy with antibiotics, the above samples were then incubated at 37° C. for 3.5 h with shaking at 200 rpm after adding the selected antibiotic. After 3.5 h, the CFU of samples was quantified in the same way to understand if there is any synergy between GM-CSF and antibiotic. Similar treatments were performed on the total population in exponential phase as well. Apart from exponential phase, the synergistic effects of GM-CSF with antibiotics on total viable cells and persisters were also evaluated at stationary phase but PBS buffer (pH=7.4) was used in the experiments instead of 0.85% NaCl solution. Moreover, the 1 h and 3.5 h treatments were performed as co-treatments.
# [3] = 2.43 pg/ml GM-CSF with 200 μg/mL ciprofloxacin
# [4] = 2.43 pg/ml GM-CSF with 200 μg/mL gentamicin
# [5] = 2.43 pg/ml GM-CSF with 200 μg/mL tetracycline
# [6] = 2.43 pg/ml GM-CSF with 200 μg/mL tobramycin
substance,measurement,setting,value
"GM-CSF: granulocyte macrophage-colony stimulating factor, a cytokine secreted by macrophages; recombinant human GM-CSF (R&D systems) in binding tests",% change in avg. CFU/ml after adding factor + CIP,"E. coli K12 biofilm; 24-h E. coli K12 biofilm, 2.43 pg/mL GM-CSF with 100 μg/mL ciprofloxacin",+4.8%
same,% change in avg. CFU/ml after adding factor + TET,"E. coli K12 biofilm; 24-h E. coli K12 biofilm, 2.43 pg/mL GM-CSF with 100 μg/mL tetracycline",+3.6%
same,% change in avg. CFU/ml after adding factor + TOB,"E. coli K12 biofilm; 24-h E. coli K12 biofilm, 2.43 pg/mL GM-CSF with 100 μg/mL tobramycin",+4.2%
same,% change in avg. CFU/ml after adding factor + GEN,"E. coli K12 biofilm; 24-h E. coli K12 biofilm, 2.43 pg/mL GM-CSF with 125 μg/mL gentamicin",+8.1%
same,average CFU/mL of biofilm cells changed by,"E. coli K12 biofilm; E. coli K12 biofilm, 2.43 pg/mL GM-CSF alone, average of 2 experiments",+4.83%
same,average CFU/ml of biofilm cells changed by,"E. coli K12 biofilm; E. coli K12 biofilm, 2.43 pg/mL GM-CSF in the presence of 100 μg/mL ciprofloxacin",+1.2%
same,average CFU/ml of biofilm cells changed by,"E. coli K12 biofilm; E. coli K12 biofilm, 2.43 pg/mL GM-CSF in the presence of 100 μg/mL tetracycline",−2.4%
same,average CFU/ml of biofilm cells changed by,"E. coli K12 biofilm; E. coli K12 biofilm, 2.43 pg/mL GM-CSF in the presence of 100 μg/mL tobramycin",+0.6%
same,average CFU/ml of biofilm cells changed by,"E. coli K12 biofilm; E. coli K12 biofilm, 2.43 pg/mL GM-CSF in the presence of 125 μg/mL gentamicin",+1.9%
same,% change in avg. CFU/mL by GM-CSF (compared to GM-CSF free control),"P. aeruginosa PAO1 [1]; persisters, 1.7 pM GM-CSF, 200 μg/mL ciprofloxacin",−53.8 ± 16.1%
same,% change in avg. CFU/mL by GM-CSF (compared to GM-CSF free control),"P. aeruginosa PAO1 [1]; persisters, 1.7 pM GM-CSF, 200 μg/mL gentamicin",−12.7 ± 8.8%
same,% change in avg. CFU/mL by GM-CSF (compared to GM-CSF free control),"P. aeruginosa PAO1 [1]; persisters, 1.7 pM GM-CSF, 200 μg/mL tobramycin",−82.7 ± 2.3%
same,% change in avg. CFU/mL by GM-CSF (compared to GM-CSF free control),"P. aeruginosa PAO1 [1]; persisters, 17 pM GM-CSF, 200 μg/mL ciprofloxacin",−74.0 ± 2.9%
same,% change in avg. CFU/mL by GM-CSF (compared to GM-CSF free control),"P. aeruginosa PAO1 [1]; persisters, 17 pM GM-CSF, 200 μg/mL gentamicin",−25.4 ± 10.6%
same,% change in avg. CFU/mL by GM-CSF (compared to GM-CSF free control),"P. aeruginosa PAO1 [1]; persisters, 17 pM GM-CSF, 200 μg/mL tetracycline",−91.2 ± 3.2%
same,% change in avg. CFU/mL by GM-CSF (compared to GM-CSF free control),"P. aeruginosa PAO1 [1]; persisters, 17 pM GM-CSF, 200 μg/mL tobramycin",−86.5 ± 1.7%
same,% change in avg. CFU/mL by GM-CSF (compared to GM-CSF free control),"P. aeruginosa PAO1 [1]; total viable cells, 1.7 pM GM-CSF, 200 μg/mL ciprofloxacin",−19.5 ± 15.6%
same,% change in avg. CFU/mL by GM-CSF (compared to GM-CSF free control),"P. aeruginosa PAO1 [1]; total viable cells, 1.7 pM GM-CSF, 200 μg/mL gentamicin",−13.1 ± 7.4%
same,% change in avg. CFU/mL by GM-CSF (compared to GM-CSF free control),"P. aeruginosa PAO1 [1]; total viable cells, 1.7 pM GM-CSF, 200 μg/mL tobramycin",−9.4 ± 20.0%
same,% change in avg. CFU/mL by GM-CSF (compared to GM-CSF free control),"P. aeruginosa PAO1 [1]; total viable cells, 17 pM GM-CSF, 200 μg/mL ciprofloxacin",−10.3 ± 21.5%
same,% change in avg. CFU/mL by GM-CSF (compared to GM-CSF free control),"P. aeruginosa PAO1 [1]; total viable cells, 17 pM GM-CSF, 200 μg/mL gentamicin",−15.9 ± 7.4%
same,% change in avg. CFU/mL by GM-CSF (compared to GM-CSF free control),"P. aeruginosa PAO1 [1]; total viable cells, 17 pM GM-CSF, 200 μg/mL tetracycline",−1.0 ± 12.4%
same,% change in avg. CFU/mL by GM-CSF (compared to GM-CSF free control),"P. aeruginosa PAO1 [1]; total viable cells, 17 pM GM-CSF, 200 μg/mL tobramycin",+3.1 ± 18.6%
same,persister cells rendered sensitive to the antibiotic ciprofloxacin,"P. aeruginosa PAO1 [2]; P. aeruginosa persister cells, GM-CSF at 2.43 pg/mL",more than 97%
same,% change in avg. CFU/ml after adding factor + CIP,P. aeruginosa PAO1 [2]; persisters,−97.95%
same,% change in avg. CFU/ml after adding factor + GEN,P. aeruginosa PAO1 [2]; persisters,−59.31%
same,% change in avg. CFU/ml after adding factor + TET,P. aeruginosa PAO1 [2]; persisters,−65.66%
same,% change in avg. CFU/ml after adding factor + TOB,P. aeruginosa PAO1 [2]; persisters,−81.42%
same,average CFU/mL of persisters reduced by,P. aeruginosa PAO1 [2]; [3],97.95%
same,average CFU/mL of total viable cells reduced by,P. aeruginosa PAO1 [2]; [3],15.38%
same,average CFU/mL of persisters reduced by,P. aeruginosa PAO1 [2]; [4],59.31%
same,average CFU/mL of total viable cells reduced by,P. aeruginosa PAO1 [2]; [4],10.53%
same,average CFU/mL of persisters reduced by,P. aeruginosa PAO1 [2]; [5],65.66%
same,average CFU/mL of total viable cells reduced by,P. aeruginosa PAO1 [2]; [5],23.06%
same,average CFU/mL of persisters reduced by,P. aeruginosa PAO1 [2]; [6],81.42%
same,average CFU/mL of total viable cells reduced by,P. aeruginosa PAO1 [2]; [6],34.62%
same,% change in avg. CFU/ml after adding factor,"P. aeruginosa PAO1 [2]; total viable cells, planktonic PAO1, exponential phase, 2.43 pg/mL GM-CSF alone, 1 h",−2.22% and −5.00% and −2.94% and −1.69%
same,% change in avg. CFU/ml after adding factor + CIP,P. aeruginosa PAO1 [2]; total viable cells,−15.38%
same,% change in avg. CFU/ml after adding factor + GEN,P. aeruginosa PAO1 [2]; total viable cells,−10.53%
same,% change in avg. CFU/ml after adding factor + TET,P. aeruginosa PAO1 [2]; total viable cells,−23.08%
same,% change in avg. CFU/ml after adding factor + TOB,P. aeruginosa PAO1 [2]; total viable cells,−34.62%

# — US9370189B2, “Controlling Pseudomonas aeruginosa persister cells with GM-CSF” (priority 2012, dated 2016)
